Experimental data from ChEMBL document CHEMBL1131562, “Synthesis of L-enantiomers of 4'-thioarabinofuranosyl pyrimidine nucleosides” (1998).
Converted amounts (≈) assume the structure as drawn. The source made the active and inactive calls. The calls are words filed in the database; no cut-off is given here.

Assays:
Homo sapiens = species: Homo sapiens; test: Cytotoxicity against human T-cell leukemia, CCRF-HSB-2, at concentration up to 100 ug/mL; NA means not active; type: functional
Human alphaherpesvirus 2 [1] = test: Antiviral activity against herpes simplex virus type-2 at concentration up to 100 ug/mL; NA means not active; type: functional, organism-based
Human alphaherpesvirus 1 [2] = test: Antiviral activity against herpes simplex virus type-1 at concentration up to 100 ug/mL; NA means not active; type: functional, organism-based
Human alphaherpesvirus 2 [3] = test: Effective dose required for antiviral activity against herpes simplex virus type-2; type: functional; conditions: read-out: ED50 (the source's name)
Human alphaherpesvirus 1 [4] = test: Effective dose required for antiviral activity against herpes simplex virus type-1; type: functional; conditions: read-out: ED50 (the source's name)

SMILES | Activity (Homo sapiens) | Activity (Human alphaherpesvirus 2 [1]) | Activity (Human alphaherpesvirus 1 [2]) | EC50 (Human alphaherpesvirus 2 [3]) [µg/mL] | EC50 (Human alphaherpesvirus 1 [4]) [µg/mL]
Nc1ccn([C@H]2S[C@@H](CO)[C@H](O)[C@H]2O)c(=O)n1 | inactive | inactive | inactive |  | 
Nc1ccn([C@@H]2S[C@@H](CO)[C@H](O)[C@H]2O)c(=O)n1 | inactive |  |  | 10 (≈ 38.6 µM) | 10 (≈ 38.6 µM)
Cc1cn([C@H]2S[C@@H](CO)[C@H](O)[C@H]2O)c(=O)[nH]c1=O | inactive | inactive | inactive |  | 
Cc1cn([C@@H]2S[C@@H](CO)[C@H](O)[C@H]2O)c(=O)[nH]c1=O | inactive | inactive | inactive |  | 
